Reference: US20260297571A1, “METHODS FOR DECREASING NEURONAL DEATH, INFLAMMATION, AND DEGENERATION” (The Johns Hopkins University, priority 2023, published 2026)

Key:
[1] = system: poly-GR expressing neurons (EEA1^+ early endosome); assay: EEA1 immunofluorescence staining in i^3Neurons; type: cell-based, human; conditions: DJ001 3.7 μM; 3-days GR50 i^3Neurons
Excerpt: During early endosome formation, Rab5 recruits EEA1 to the early endosomal membrane via local PI3P, thus EEA1 expression is considered a secondary indicator of PI3P level. […] EEA1^+ endosome formation was increased upon knocking down PTPσ in poly-GR expressing neurons (FIGS. 2C-2D).
Cell survival assay. I'Neurons were infected with lentivirus to transduce GR50, PR50, BFP or GFP expression in the cells on day 5, day 7, day 9 or day 11 depending on the experimental timeline. For inducible DPRs, the virus was added to neurons on differentiation day 6. The expression was initiated by adding Dox to the differentiation medium (induction day 1). […]
Confocal microscopy and image quantification. […] For GFP-2×FYVE florescence intensity quantification, at least 6 images were taken for each replica with more than 30 neurons. […] The fluorescence intensity of the region of interest was measured and then minus the background intensity. For the quantification of EEA1^+ and LAMP1^+ puncta, EEA1 or LAMP1 channel was merged with MAP2. The puncta within MAP2 region were counted and compared among groups. For the quantification in mouse brains, at least 6 serial sections were imaged to quantify the number of neurons, astrocyte, and microglia in mouse brains. For glutamate-induced neurotoxicity assays, 5 images of PI staining will be taken at 20× for each well to quantify dead neurons. […]

hematopoietic stem cell = conditions: in vitro and in the mouse model; cited from earlier work
PTPσ = conditions: DJ001; cited from earlier work
[2] = system: poly-GR expressing neurons; assay: Cell survival assay, GR50 expressing i^3Neurons; type: cell-based, human
Experimental: (§1) Cell survival assay. I'Neurons were infected with lentivirus to transduce GR50, PR50, BFP or GFP expression in the cells on day 5, day 7, day 9 or day 11 depending on the experimental timeline. For inducible DPRs, the virus was added to neurons on differentiation day 6. The expression was initiated by adding Dox to the differentiation medium (induction day 1). To validate the effect of the drugs on neuron survival, DPR was transduced for 7 days. i^3Neurons were treated with 5 μM ASOs for 7 days or 2.5 μM ISP (Sigma, Cat. No. 5343390001) or 3.7 μM DJ001 (Sigma, Cat. No. SML2787) for 3 days before harvesting. To examine the effect of the drugs on other cellular phenotypes, DPR was transduced for 3 days. 2.5 μM ISP or 3.7 μM DJ001 was added to the culture medium on the same day, followed by FYVE reporter transduction 1 day later.
(§2) To measure cell survival, bright-field images were captured on day 14 using a Nikon TS-2 microscope. At least 4 images were taken at 10× object for each replica. At least 2 replicas were included for each batch. All experiments were performed at least twice. To examine dead neurons, PI (Thermo Fisher, Cat. No. P1304MP) dye was added to the culture medium 30 min before harvesting. Images of bright field and Cy3 channel were acquired, followed by quantifying the surviving neurons and PI^+ signals blindly.

[3] = system: poly-PR expressing neurons; assay: Cell survival assay, PR50 expressing i^3Neurons; type: cell-based, human
Experimental: as §1, §2

PIKFYVE = conditions: YM-201636; cited from earlier work
C9-iPSNs = assay: Glutamate-induced excitotoxicity assay in C9 iPSNs/iMNs; type: cell-based, human; conditions: 10 μM glutamate
Experimental: Glutamate toxicity contributes to the disease onset/progression in ALS due to the loss of glutamate transporter 1 (EAAT2). […] To evaluate the effect of PTPσ knockdown to the physiology of C9-iPSNs, glutamate-induced excitotoxicity assays were performed and the percentage of cell death (PI^+) was quantified after the treatment with or without PTPσ knockdown. […] Taken together, the evidence supports PTPσ knockdown as beneficial for homeostasis of endo-lysosomal system, neuronal function, and survival in the C9-iPSNs.
C9 patient iPSNs differentiation (iMNs differentiation). […]
Glutamate-induced excitotoxicity assay. […] Five pairs of age and gender-matched control and C9ORF72-ALS iPSNs were analyzed.
Confocal microscopy and image quantification. […] For GFP-2×FYVE florescence intensity quantification, at least 6 images were taken for each replica with more than 30 neurons. […] The fluorescence intensity of the region of interest was measured and then minus the background intensity. For the quantification of EEA1^+ and LAMP1^+ puncta, EEA1 or LAMP1 channel was merged with MAP2. The puncta within MAP2 region were counted and compared among groups. For the quantification in mouse brains, at least 6 serial sections were imaged to quantify the number of neurons, astrocyte, and microglia in mouse brains. […] At least 500 cells from each biological replicate will be counted for statistical comparison.

## O=C(/C=C\Nc1cccc([N+](=O)[O-])c1)c1ccccc1 [DJ001, (Z)-3-((3-nitrophenyl)amino)-1-phenylprop-2-en-1-one]
[1]
  formation of EEA1^+ early endosome: significantly increased
Hematopoietic stem cell
  hematopoietic stem cell regeneration: can promote hematopoietic stem cell regeneration
PTPσ
  specificity of PTPσ inhibition: highly specific inhibitor
[2]; DJ001 3.7 μM, GR50 i^3Neurons
  poly-GR expressing neuron survival: improves
[3]; DJ001, PR50 i^3Neurons
  poly-PR expressing neuron survival: improves

## CC(C)(O)CNc1ncc(-c2ccnc(Nc3ccnc(Cl)c3)n2)c(CC2CC2)n1 [VPS34-IN1]
[2]; VPS34-IN1 0.5 μM, 2 days, PTPσ knockdown GR50 i^3Neurons
  rescue effect of PTPσ knockdown on GR50 neuron survival: completely diminished
[3]; VPS34 inhibitor, PTPσ knockdown PR50 neurons
  rescue by PTPσ knockdown, PR50 neurons: abolished

## Nc1ccc(C(=O)Nc2cccc(-c3nc(N4CCOCC4)c4oc5ncccc5c4n3)c2)cn1 [YM-201636]
PIKFYVE
  PI3P levels via inhibition of PI3P to PI(3,5)P2 conversion: can boost PI3P levels
[2]; YM-201636 0.5 μM, GR50 i^3Neurons
  rescue effect in poly-GR expressing neurons (survival): robust rescue effect

## N[C@@H](CCC(=O)O)C(=O)O [glutamate]
C9-iPSNs
  PI^+ dead cells in control shRNA C9-iPSNs: increased
